# Results taken from ChEMBL document CHEMBL4393691, “Design, synthesis and antitumor evaluation of novel celastrol derivatives” (Eur J Med Chem, 2019).
# Active and inactive are the calls of the source. The rule behind the calls is not given here.
# Legend:
# [1] = system: A549; assay: Induction of apoptosis in human A549 cells incubated for 48 hrs by Hoechst 33342 staining-based fluorescence microscopy; format: functional, cell-based
# [2] = system: MCF7; assay: Antiproliferative activity against human MCF7 cells assessed as reduction in cell viability at 1 uM incubated for 48 hrs by MTT assay relative to control; format: functional; settings: MCF7, 48 h
# [3] = system: A549; assay: Inhibition of Hsp90-Cdc37 interaction in human A549 cells assessed as decrease in Cdc37 protein level at 5 uM incubated for 6 hrs by immunoprecipitation assay; format: cell-based
# [4] = target: RAC-alpha serine/threonine-protein kinase (Homo sapiens) (UniProt P31749); assay: Inhibition of Akt phosphorylation in human A549 cells incubated for 8 hrs by Western blot analysis; format: cell-based
# [5] = system: A549; assay: Induction of apoptosis in human A549 cells assessed as increase in caspase-3 expression incubated for 8 hrs by western blot analysis; format: functional, cell-based
# [6] = system: A549; assay: Cell cycle arrest in human A549 cells assessed as accumulation at G1 phase at 0.06 uM incubated for 12 hrs by propidium iodide staining based flow cytometry analysis (Rvb=49.49%); format: functional
# [7] = system: A549; assay: Cell cycle arrest in human A549 cells assessed as accumulation at S phase at 0.06 uM incubated for 12 hrs by propidium iodide staining based flow cytometry analysis (Rvb=38.46%); format: functional
# [8] = system: A549; assay: Cell cycle arrest in human A549 cells assessed as accumulation at G2 phase at 0.06 uM incubated for 12 hrs by propidium iodide staining based flow cytometry analysis (Rvb=11.7%); format: functional
# [9] = system: A549; assay: Cell cycle arrest in human A549 cells assessed as accumulation at G1 phase at 0.18 uM incubated for 12 hrs by propidium iodide staining based flow cytometry analysis (Rvb=49.49%); format: functional
# [10] = system: A549; assay: Cell cycle arrest in human A549 cells assessed as accumulation at G2 phase at 0.18 uM incubated for 12 hrs by propidium iodide staining based flow cytometry analysis (Rvb=11.7%); format: functional
# [11] = system: A549; assay: Cell cycle arrest in human A549 cells assessed as accumulation at S phase at 0.27 uM incubated for 12 hrs by propidium iodide staining based flow cytometry analysis (Rvb=38.46%); format: functional
# [12] = system: A549; assay: Cell cycle arrest in human A549 cells assessed as accumulation at S phase at 0.06 uM incubated for 24 hrs by propidium iodide staining based flow cytometry analysis (Rvb=27.61%); format: functional
# [13] = system: A549; assay: Cell cycle arrest in human A549 cells assessed as accumulation at G2 phase at 0.06 uM incubated for 24 hrs by propidium iodide staining based flow cytometry analysis (Rvb=18.01%); format: functional
# [14] = system: A549; assay: Cell cycle arrest in human A549 cells assessed as accumulation at G1 phase at 0.18 uM incubated for 24 hrs by propidium iodide staining based flow cytometry analysis (Rvb=55.3%); format: functional
# [15] = system: A549; assay: Cell cycle arrest in human A549 cells assessed as accumulation at G1 phase at 0.27 uM incubated for 24 hrs by propidium iodide staining based flow cytometry analysis (Rvb=55.3%); format: functional
# [16] = system: A549; assay: Induction of apoptosis in human A549 cells assessed as increase in cleaved PARP expression at 0.5 to 2 uM incubated for 8 hrs by western blot analysis; format: functional, cell-based
# [17] = system: A549; assay: Induction of apoptosis in human A549 cells assessed as increase in cleaved caspase8 expression at 0.5 to 2 uM incubated for 8 hrs by western blot analysis; format: functional, cell-based
# [18] = system: A549; assay: Induction of apoptosis in human A549 cells assessed as viable cells at 0.2 uM incubated for 24 hrs by AnnexinV-FITC/propidium iodide/propidium iodide staining-based flow cytometric analysis (reference value: 88.1%); format: functional; settings: A549, 24 h, read-out: Activity
# [19] = system: A549; assay: Induction of apoptosis in human A549 cells assessed as early apoptotic cells at 0.2 uM incubated for 24 hrs by AnnexinV-FITC/propidium iodide/propidium iodide staining-based flow cytometric analysis (reference value: 4.1%); format: functional
# [20] = system: A549; assay: Induction of apoptosis in human A549 cells assessed as late apoptotic cells at 0.2 uM incubated for 24 hrs by AnnexinV-FITC/propidium iodide/propidium iodide staining-based flow cytometric analysis (reference value: 4.2%); format: functional
# [21] = system: A549; assay: Induction of apoptosis in human A549 cells assessed as necrotic cells at 0.2 uM incubated for 24 hrs by AnnexinV-FITC/propidium iodide staining-based flow cytometric analysis (reference value: 3.6%); format: functional
# [22] = system: A549; assay: Induction of apoptosis in human A549 cells assessed as viable cells at 0.4 uM incubated for 24 hrs by AnnexinV-FITC/propidium iodide staining-based flow cytometric analysis (reference value: 88.1%); format: functional; settings: A549, 24 h, read-out: Activity
# [23] = system: A549; assay: Induction of apoptosis in human A549 cells assessed as late apoptotic cells at 0.4 uM incubated for 24 hrs by AnnexinV-FITC/propidium iodide staining-based flow cytometric analysis (reference value: 4.2%); format: functional
# [24] = system: A549; assay: Induction of apoptosis in human A549 cells assessed as viable cells at 0.6 uM incubated for 24 hrs by AnnexinV-FITC/propidium iodide staining-based flow cytometric analysis (reference value: 88.1%); format: functional; settings: A549, 24 h, read-out: Activity
# [25] = system: A549; assay: Induction of apoptosis in human A549 cells assessed as early apoptotic cells at 0.6 uM incubated for 24 hrs by AnnexinV-FITC/propidium iodide staining-based flow cytometric analysis (reference value: 4.1%); format: functional
# [26] = system: A549; assay: Induction of apoptosis in human A549 cells assessed as late apoptotic cells at 0.6 uM incubated for 24 hrs by AnnexinV-FITC/propidium iodide staining-based flow cytometric analysis (reference value: 4.2%); format: functional
# [27] = system: A549; assay: Induction of apoptosis in human A549 cells assessed as viable cells at 0.8 uM incubated for 24 hrs by AnnexinV-FITC/propidium iodide staining-based flow cytometric analysis (reference value: 88.1%); format: functional; settings: A549, 24 h, read-out: Activity
# [28] = system: A549; assay: Induction of apoptosis in human A549 cells assessed as late apoptotic cells at 0.8 uM incubated for 24 hrs by AnnexinV-FITC/propidium iodide staining-based flow cytometric analysis (reference value: 4.2%); format: functional
# [29] = system: A549; assay: Induction of apoptosis in human A549 cells assessed as necrotic cells at 0.8 uM incubated for 24 hrs by AnnexinV-FITC/propidium iodide staining-based flow cytometric analysis (reference value: 3.6%); format: functional
# [30] = system: A549; assay: Induction of apoptosis in human A549 cells assessed as viable cells at 1.2 uM incubated for 24 hrs by AnnexinV-FITC/propidium iodide staining-based flow cytometric analysis (reference value: 88.1%); format: functional; settings: A549, 24 h, read-out: Activity
# [31] = system: A549; assay: Induction of apoptosis in human A549 cells assessed as early apoptotic cells at 1.2 uM incubated for 24 hrs by AnnexinV-FITC/propidium iodide staining-based flow cytometric analysis (reference value: 4.1%); format: functional
# [32] = system: A549; assay: Induction of apoptosis in human A549 cells assessed as cell shrinkage at 0.06 to 0.18 uM incubated for 48 hrs by Hoechst 33342 staining-based fluorescence microscopy; format: functional
# [33] = system: A549; assay: Induction of apoptosis in human A549 cells assessed as nuclear fragmentation at 0.06 to 0.18 uM incubated for 48 hrs by Hoechst 33342 staining-based fluorescence microscopy; format: functional, cell-based
# [34] = system: A549; assay: cells; settings: Homo sapiens, A549, 48 h
# [35] = system: MCF7; assay: cells; settings: Homo sapiens, MCF7, 48 h
# RAC-alpha serine/threonine-protein kinase (Homo sapiens), sequence (P31749 whole entry): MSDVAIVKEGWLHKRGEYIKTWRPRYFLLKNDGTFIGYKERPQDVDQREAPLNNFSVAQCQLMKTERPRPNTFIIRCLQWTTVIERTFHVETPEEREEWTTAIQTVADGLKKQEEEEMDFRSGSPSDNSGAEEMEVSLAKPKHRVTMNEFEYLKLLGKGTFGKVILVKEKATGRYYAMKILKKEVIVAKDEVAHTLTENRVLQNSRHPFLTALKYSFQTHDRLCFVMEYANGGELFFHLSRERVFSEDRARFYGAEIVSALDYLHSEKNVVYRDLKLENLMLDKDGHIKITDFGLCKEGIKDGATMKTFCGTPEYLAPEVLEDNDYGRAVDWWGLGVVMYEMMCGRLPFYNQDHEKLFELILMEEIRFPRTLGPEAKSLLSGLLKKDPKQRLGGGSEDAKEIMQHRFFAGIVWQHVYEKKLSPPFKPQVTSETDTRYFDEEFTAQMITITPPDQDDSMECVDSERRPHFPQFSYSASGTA
smiles,measurement,setting,value
COC(=O)/C=C\c1ccc(OC)c(OCCOC(=O)[C@]2(C)CC[C@]3(C)CC[C@]4(C)C5=CC=C6C(=CC(=O)C(O)=C6C)[C@]5(C)CC[C@@]4(C)[C@@H]3C2)c1,Activity,[1],Dose-dependent effect
same,inhibition at 1 µM,[2],87.7%
same,inhibition,[3],Active
same,inhibition,[4],Dose-dependent effect
same,Activity,[5],Active
same,Activity,[6],52.22%
same,Activity,[7],36.32%
same,Activity,[8],12.14%
same,Activity,[9],56.86%
same,Activity,[10],10.44%
same,Activity,[11],35.25%
same,Activity,[12],32.45%
same,Activity,[13],15.7%
same,Activity,[14],61.95%
same,Activity,[15],68.04%
same,Activity,[16],Dose-dependent effect
same,Activity,[17],Dose-dependent effect
same,viability at 0.2 µM,[18],77.7%
same,Activity,[19],5.3%
same,Activity,[20],12.7%
same,Activity,[21],4.4%
same,viability at 0.4 µM,[22],69.9%
same,Activity,[23],16.4%
same,viability at 0.6 µM,[24],50.6%
same,Activity,[25],17.3%
same,Activity,[26],27.6%
same,viability at 0.8 µM,[27],33.7%
same,Activity,[28],43.3%
same,Activity,[29],6.9%
same,viability at 1.2 µM,[30],24.6%
same,Activity,[31],11.3%
same,Activity,[32],Active
same,Activity,[33],Active
same,IC50,[34],150 nM
same,IC50,[35],170 nM
